Measurements as given in ChEMBL document CHEMBL5046315, “CRCM5484: A BET-BDII Selective Compound with Differential Anti-leukemic Drug Modulation” (J Med Chem, 2022).
Active and inactive are the calls of the source. The calls are words filed in the database; no cut-off is given here.

Columns and labels:
[1] = tested on: MOLM-14; experiment: Potentiation of docetaxel-induced antileukemic activity against human MOLM-14 cells at 4.3 uM in presence of bone-marrow derived stromal cell-conditioned medium; type: functional, cell-based
[2] = target: Bromodomain-containing protein 3 (Homo sapiens, UniProt Q15059); experiment: Inhibition of BRD3-BD2 (unknown origin) assessed as dissociation constant by ITC method
[3] = tested on: U-937; experiment: Potentiation of carfilzomib-induced antileukemic activity against human U-937 cells at 4.3 uM in presence of bone-marrow derived stromal cell-conditioned medium; type: functional, cell-based
[4] = tested on: CCRF-CEM; experiment: Potentiation of JQ1-induced antileukemic activity against human CCRF-CEM cells at 4.3 uM in presence of bone-marrow derived stromal cell-conditioned medium; type: functional, cell-based
[5] = tested on: CCRF-CEM; experiment: Potentiation of docetaxel-induced antileukemic activity against human CCRF-CEM cells at 4.3 uM in presence of bone-marrow derived stromal cell-conditioned medium; type: functional, cell-based
[6] = tested on: U-937; experiment: Potentiation of OTX015-induced antileukemic activity against human U-937 cells at 4.3 uM in presence of bone-marrow derived stromal cell-conditioned medium; type: functional, cell-based
[7] = tested on: CCRF-CEM; experiment: Potentiation of AC-4-130-induced antileukemic activity against human CCRF-CEM cells at 4.3 uM in presence of bone-marrow derived stromal cell-conditioned medium; type: functional, cell-based
[8] = tested on: CCRF-CEM; experiment: Potentiation of asparaginase-induced antileukemic activity against human CCRF-CEM cells at 4.3 uM in presence of bone-marrow derived stromal cell-conditioned medium; type: functional, cell-based
[9] = tested on: U-937; experiment: Potentiation of olaparid-induced antileukemic activity against human U-937 cells at 4.3 uM in presence of bone-marrow derived stromal cell-conditioned medium; type: functional, cell-based
[10] = tested on: MOLM-14; experiment: Potentiation of azacitidine-induced antileukemic activity against human MOLM-14 cells at 4.3 uM in presence of bone-marrow derived stromal cell-conditioned medium; type: functional, cell-based
[11] = tested on: CCRF-CEM; experiment: Potentiation of vorinostat-induced antileukemic activity against human CCRF-CEM cells at 4.3 uM in presence of bone-marrow derived stromal cell-conditioned medium; type: functional, cell-based
[12] = tested on: CCRF-CEM; experiment: Potentiation of volasertib-induced antileukemic activity against human CCRF-CEM cells at 4.3 uM in presence of bone-marrow derived stromal cell-conditioned medium; type: functional, cell-based
[13] = tested on: U-937; experiment: Potentiation of BKM120-induced antileukemic activity against human U-937 cells at 4.3 uM in presence of bone-marrow derived stromal cell-conditioned medium; type: functional, cell-based
[14] = tested on: K562; experiment: Inhibition of IFNgamma induced MHC-1 expression in human K562 cells treated for 48 hrs by flow cytometric analysis; type: functional, cell-based; details: dose 0.2-20 µM
[15] = tested on: MOLM-14; experiment: Potentiation of cyclopamine-induced antileukemic activity against human MOLM-14 cells at 4.3 uM in presence of bone-marrow derived stromal cell-conditioned medium; type: functional, cell-based
[16] = tested on: CCRF-CEM; experiment: Potentiation of GSK126-induced antileukemic activity against human CCRF-CEM cells at 4.3 uM in presence of bone-marrow derived stromal cell-conditioned medium; type: functional, cell-based
[17] = tested on: MOLM-14; experiment: Potentiation of imatinib-induced antileukemic activity against human MOLM-14 cells at 4.3 uM in presence of bone-marrow derived stromal cell-conditioned medium; type: functional, cell-based
[18] = tested on: CCRF-CEM; experiment: Potentiation of bortezomib-induced antileukemic activity against human CCRF-CEM cells at 4.3 uM in presence of bone-marrow derived stromal cell-conditioned medium; type: functional, cell-based
[19] = tested on: CCRF-CEM; experiment: Potentiation of prima1-induced antileukemic activity against human CCRF-CEM cells at 4.3 uM in presence of bone-marrow derived stromal cell-conditioned medium; type: functional, cell-based
[20] = tested on: U-937; experiment: Potentiation of AG-221-induced antileukemic activity against human U-937 cells at 4.3 uM in presence of bone-marrow derived stromal cell-conditioned medium; type: functional, cell-based
[21] = tested on: CCRF-CEM; experiment: Potentiation of daunorubicine-induced antileukemic activity against human CCRF-CEM cells at 4.3 uM in presence of bone-marrow derived stromal cell-conditioned medium; type: functional, cell-based
[22] = tested on: MOLM-14; experiment: Potentiation of AT9283-induced antileukemic activity against human MOLM-14 cells at 4.3 uM in presence of bone-marrow derived stromal cell-conditioned medium; type: functional, cell-based
[23] = tested on: CCRF-CEM; experiment: Potentiation of gefitinib-induced antileukemic activity against human CCRF-CEM cells at 4.3 uM in presence of bone-marrow derived stromal cell-conditioned medium; type: functional, cell-based
[24] = tested on: MOLM-14; experiment: Potentiation of palbociclib-induced antileukemic activity against human MOLM-14 cells at 4.3 uM in presence of bone-marrow derived stromal cell-conditioned medium; type: functional, cell-based

Sequence of Bromodomain-containing protein 3 (Q15059 whole entry): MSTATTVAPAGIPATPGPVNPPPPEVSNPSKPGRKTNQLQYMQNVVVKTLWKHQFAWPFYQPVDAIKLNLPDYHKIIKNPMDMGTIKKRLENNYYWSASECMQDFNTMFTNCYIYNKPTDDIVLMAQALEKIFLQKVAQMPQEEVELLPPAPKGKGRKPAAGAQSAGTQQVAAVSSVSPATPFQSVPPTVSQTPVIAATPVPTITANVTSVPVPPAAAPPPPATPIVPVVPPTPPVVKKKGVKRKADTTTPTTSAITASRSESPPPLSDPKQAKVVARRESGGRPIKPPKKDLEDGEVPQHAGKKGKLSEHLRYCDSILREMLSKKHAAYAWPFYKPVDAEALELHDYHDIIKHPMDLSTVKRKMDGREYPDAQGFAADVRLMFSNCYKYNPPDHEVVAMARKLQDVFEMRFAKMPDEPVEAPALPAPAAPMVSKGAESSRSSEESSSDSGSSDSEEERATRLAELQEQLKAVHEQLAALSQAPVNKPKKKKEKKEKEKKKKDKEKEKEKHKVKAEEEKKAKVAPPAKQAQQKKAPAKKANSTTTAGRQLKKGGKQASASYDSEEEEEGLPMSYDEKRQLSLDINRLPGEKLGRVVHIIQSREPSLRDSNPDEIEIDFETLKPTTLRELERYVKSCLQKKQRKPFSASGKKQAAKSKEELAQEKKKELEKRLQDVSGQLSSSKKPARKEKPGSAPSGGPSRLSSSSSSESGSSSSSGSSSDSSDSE

In the case of `CC(=O)N1CCc2c(sc3nc(SCC(=O)Nc4cccnc4C)n(Cc4ccco4)c(=O)c23)C1`, the Activity [1] is reported as “inactive”, the Kd [2] is reported as 0.15 µM and the Activity [3] is reported as “inactive”. For the same compound, the Activity [4] was “inactive”, the Activity [5] was “inactive” and the Activity [6] was “inactive”. The Activity [7] was “inactive”, the Activity [8] was “inactive” and the Activity [9] was “inactive”. The Activity [10] was “inactive”, the Activity [11] was “inactive” and the Activity [12] was “inactive”. The Activity [13] was “inactive”, the Activity [14] was “Dose-Dependent Effect” and the Activity [15] was “inactive”. The Activity [16] was “inactive”, the Activity [17] was “inactive” and the Activity [18] was “inactive”. The Activity [19] was “inactive”, the Activity [20] was “inactive” and the Activity [21] was “inactive”. The Activity [22] was “inactive”, the Activity [23] was “inactive” and the Activity [24] was “inactive”.
